Results as given in ChEMBL document CHEMBL1139208, “An efficient and stereoselective dearylation of asarinin and sesamin tetrahydrofurofuran lignans to acuminatolide by methyltrioxorhenium/H(2)O(2) and UHP systems” (J Nat Prod, 2007).

Test system: NIH3T3
Assay: Cytotoxicity against murine 3T3 cells by MTT assay
Assay type: cell-based
Details: Mus musculus

| SMILES | IC50 [µM] |
| --- | --- |
| O=C(O)[C@H]1CO[C@@H](c2ccc3c(c2)OCO3)[C@H]1CO | 3 |
| c1cc2c(cc1[C@H]1OC[C@H]3[C@@H]1CO[C@H]3c1ccc3c(c1)OCO3)OCO2 [ASARININ] | 0.2 |
| O=C1OC[C@H]2[C@@H]1CO[C@@H]2c1ccc2c(c1)OCO2 | > 20 |
| O=C1OC[C@H]2[C@@H]1CO[C@H]2c1ccc2c(c1)OCO2 | > 20 |
